System: supercoiled pHOT1 DNA
Assay: DNA unwinding assay
Type: biochemical
Conditions: concentration shifting topoisomers to the middle position between relaxed and supercoiled bands

Work on `N[C@H]1CCN(c2c(F)cc3c(=O)c(C(=O)O)cn4c3c2Oc2ccccc2-4)C1` [Compound A-62176, 1-(3-aminopyrrolidin-1-yl)-2-fluoro-4-oxo-4H-quino[2,3,4-i,j][1,4]benzoxazine-5-carboxylic acid, reference compound] yielded a DNA unwinding concn of 50 µM.
